Measured values published in ChEMBL document CHEMBL4177619, “Novel potentially antifungal hybrids of 5-flucytosine and fluconazole: Design, synthesis and bioactive evaluation” (2017).
≈ marks a conversion by molar mass, not a printed value. Calls of active or inactive are those of the source. No cut-off for these calls is given here.

Experiments:
Candida albicans [1] = experiment: Antifungal activity against Candida albicans ATCC 90023 after 24 hrs by micro broth dilution method; format: functional; conditions: ATCC 90023, 24 h
Candida albicans [2] = experiment: Antifungal activity against Candida albicans after 24 hrs by micro broth dilution method; format: functional
Aspergillus fumigatus = experiment: Antifungal activity against Aspergillus fumigatus after 24 hrs by micro broth dilution method; format: functional
Candida tropicalis = experiment: Antifungal activity against Candida tropicalis after 24 hrs by micro broth dilution method; format: functional
Candida parapsilosis = experiment: Antifungal activity against Candida parapsilosis ATCC 22019 after 24 hrs by micro broth dilution method; format: functional; conditions: Lodderomyces parapsilosis, ATCC 22019, 24 h
Calf thymus DNA [3] = experiment: Binding affinity to calf thymus DNA assessed as hyperchromic effect up to 2 x 10^-5mol/L by UV-Visible spectrometric analysis; format: nucleic-acid assay; conditions: Bos taurus
Calf thymus DNA [4] = experiment: Inhibition of neutral red binding to calf thymus DNA by UV-Visible spectrometric analysis; format: nucleic-acid assay; conditions: Bos taurus
Candida albicans [5] = experiment: Fungicidal activity against Candida albicans assessed as log reduction in fungal load at 4 time MIC up to 1 hr by time kill assay; format: functional
Candida albicans [6] = experiment: Potency index, ratio of 5-fluorocytosine MIC80 to compound MIC80 for Candida albicans; format: functional
Candida albicans [7] = experiment: Induction of inner membrane permeabilization in Candida albicans assessed as propidium iodide uptake at 12 times MIC up to 105 mins by fluorescence assay; format: functional, organism-based
Candida albicans [8] = experiment: Potency index, ratio of fluconazole MIC80 to compound MIC80 for Candida albicans; format: functional
Calf thymus DNA [9] = experiment: Binding affinity to calf thymus DNA assessed as increase in maximum absorption of DNA by UV-Visible spectrometric analysis; format: nucleic-acid assay; conditions: Bos taurus

Row | SMILES | MIC80 (Candida albicans [1]) | MIC80 (Candida albicans [2]) | MIC80 (Aspergillus fumigatus) | MIC80 (Candida tropicalis) | MIC80 (Candida parapsilosis) | Activity (Calf thymus DNA [3]) | inhibition (Calf thymus DNA [4]) | Activity (Candida albicans [5]) | Ratio (Candida albicans [6]) | Activity (Candida albicans [7]) | Ratio (Candida albicans [8]) | Activity (Calf thymus DNA [9]) | K (Calf thymus DNA [9])
1 | CCCCCCCCN(CC(O)(Cn1cncn1)c1ccc(F)cc1F)c1nc(=O)[nH]cc1F (stereo not drawn) | 530 µM (≈ 254 µg/mL) | 1060 µM (≈ 507 µg/mL) | 2130 µM (≈ 1020 µg/mL) | 1060 µM (≈ 507 µg/mL) | 530 µM (≈ 254 µg/mL) |  |  |  |  |  |  |  | 
2 | C#CCN(CC(O)(Cn1cncn1)c1ccc(F)cc1F)c1nc(=O)[nH]cc1F (stereo not drawn) | 1260 µM (≈ 509 µg/mL) | 310 µM (≈ 125 µg/mL) | 630 µM (≈ 255 µg/mL) | 630 µM (≈ 255 µg/mL) | 1260 µM (≈ 509 µg/mL) |  |  |  |  |  |  |  | 
3 | CCCCN(CC(O)(Cn1cncn1)c1ccc(F)cc1F)c1nc(=O)[nH]cc1F (stereo not drawn) | 300 µM (≈ 127 µg/mL) | 300 µM (≈ 127 µg/mL) | 600 µM (≈ 253 µg/mL) | 600 µM (≈ 253 µg/mL) | 300 µM (≈ 127 µg/mL) |  |  |  |  |  |  |  | 
4 | O=c1nc(NCC(O)(Cn2cncn2)c2ccc(F)cc2F)c(F)c[nH]1 (stereo not drawn) | 170 µM (≈ 62.3 µg/mL) | 170 µM (≈ 62.3 µg/mL) | 80 µM (≈ 29.3 µg/mL) | 40 µM (≈ 14.7 µg/mL) | 170 µM (≈ 62.3 µg/mL) |  |  |  |  |  |  |  | 
5 | O=c1nc(N(Cc2ccccc2Cl)CC(O)(Cn2cncn2)c2ccc(F)cc2F)c(F)c[nH]1 (stereo not drawn) | 260 µM (≈ 128 µg/mL) | 130 µM (≈ 63.8 µg/mL) | 260 µM (≈ 128 µg/mL) | 260 µM (≈ 128 µg/mL) | 520 µM (≈ 255 µg/mL) |  |  |  |  |  |  |  | 
6 | CCCCCCCCCCN(CC(O)(Cn1cncn1)c1ccc(F)cc1F)c1nc(=O)[nH]cc1F (stereo not drawn) | 2020 µM (≈ 1020 µg/mL) | 1010 µM (≈ 512 µg/mL) | 2020 µM (≈ 1020 µg/mL) | 1010 µM (≈ 512 µg/mL) | 1010 µM (≈ 512 µg/mL) |  |  |  |  |  |  |  | 
7 | O=c1nc(N(Cc2ccc(Cl)cc2Cl)CC(O)(Cn2cncn2)c2ccc(F)cc2F)c(F)c[nH]1 (stereo not drawn) | 120 µM (≈ 63 µg/mL) | 240 µM (≈ 126 µg/mL) | 240 µM (≈ 126 µg/mL) | 120 µM (≈ 63 µg/mL) | 480 µM (≈ 252 µg/mL) |  |  |  |  |  |  |  | 
8 | CCCCCN(CC(O)(Cn1cncn1)c1ccc(F)cc1F)c1nc(=O)[nH]cc1F (stereo not drawn) | 580 µM (≈ 253 µg/mL) | 580 µM (≈ 253 µg/mL) | 580 µM (≈ 253 µg/mL) | 290 µM (≈ 127 µg/mL) | 1170 µM (≈ 511 µg/mL) |  |  |  |  |  |  |  | 
9 | CCN(CC(O)(Cn1cncn1)c1ccc(F)cc1F)c1nc(=O)[nH]cc1F (stereo not drawn) | 320 µM (≈ 126 µg/mL) | 160 µM (≈ 63.1 µg/mL) | 640 µM (≈ 252 µg/mL) | 640 µM (≈ 252 µg/mL) | 320 µM (≈ 126 µg/mL) |  |  |  |  |  |  |  | 
10 | O=c1nc(N(Cc2ccccc2)CC(O)(Cn2cncn2)c2ccc(F)cc2F)c(F)c[nH]1 (stereo not drawn) | 280 µM (≈ 128 µg/mL) | 280 µM (≈ 128 µg/mL) | 140 µM (≈ 63.9 µg/mL) | 280 µM (≈ 128 µg/mL) | 280 µM (≈ 128 µg/mL) |  |  |  |  |  |  |  | 
11 | O=c1nc(N(Cc2ccc(F)cc2)CC(O)(Cn2cncn2)c2ccc(F)cc2F)c(F)c[nH]1 (stereo not drawn) | 530 µM (≈ 251 µg/mL) | 260 µM (≈ 123 µg/mL) | 260 µM (≈ 123 µg/mL) | 530 µM (≈ 251 µg/mL) | 530 µM (≈ 251 µg/mL) |  |  |  |  |  |  |  | 
12 | CCCN(CC(O)(Cn1cncn1)c1ccc(F)cc1F)c1nc(=O)[nH]cc1F (stereo not drawn) | 310 µM (≈ 127 µg/mL) | 310 µM (≈ 127 µg/mL) | 620 µM (≈ 253 µg/mL) | 620 µM (≈ 253 µg/mL) | 620 µM (≈ 253 µg/mL) |  |  |  |  |  |  |  | 
13 | CCCCCCN(CC(O)(Cn1cncn1)c1ccc(F)cc1F)c1nc(=O)[nH]cc1F (stereo not drawn) | 560 µM (≈ 252 µg/mL) | 560 µM (≈ 252 µg/mL) | 560 µM (≈ 252 µg/mL) | 1130 µM (≈ 509 µg/mL) | 280 µM (≈ 126 µg/mL) |  |  |  |  |  |  |  | 
14 | O=c1nc(N(Cc2ccc(Cl)c(Cl)c2)CC(O)(Cn2cncn2)c2ccc(F)cc2F)c(F)c[nH]1 (stereo not drawn) | 8 µM (≈ 4.2 µg/mL) | 20 µM (≈ 10.5 µg/mL) | 30 µM (≈ 15.8 µg/mL) | 30 µM (≈ 15.8 µg/mL) | 30 µM (≈ 15.8 µg/mL) | Active | Dose-dependent effect | >3 log10CFU/ml | 8 | Active | 8 | Dose-dependent effect | 4.88 ×10³ L/mol
15 | O=c1nc(N(Cc2cccc(Cl)c2)CC(O)(Cn2cncn2)c2ccc(F)cc2F)c(F)c[nH]1 (stereo not drawn) | 130 µM (≈ 63.8 µg/mL) | 130 µM (≈ 63.8 µg/mL) | 130 µM (≈ 63.8 µg/mL) | 520 µM (≈ 255 µg/mL) | 260 µM (≈ 128 µg/mL) |  |  |  |  |  |  |  | 
16 | C=CCN(CC(O)(Cn1cncn1)c1ccc(F)cc1F)c1nc(=O)[nH]cc1F (stereo not drawn) | 620 µM (≈ 252 µg/mL) | 310 µM (≈ 126 µg/mL) | 620 µM (≈ 252 µg/mL) | 620 µM (≈ 252 µg/mL) | 1250 µM (≈ 508 µg/mL) |  |  |  |  |  |  |  | 
17 | O=c1nc(N(Cc2ccc(Cl)cc2)CC(O)(Cn2cncn2)c2ccc(F)cc2F)c(F)c[nH]1 (stereo not drawn) | 130 µM (≈ 63.8 µg/mL) | 130 µM (≈ 63.8 µg/mL) | 130 µM (≈ 63.8 µg/mL) | 130 µM (≈ 63.8 µg/mL) | 130 µM (≈ 63.8 µg/mL) |  |  |  |  |  |  |  | 
18 | CCCCCCCCCCCCN(CC(O)(Cn1cncn1)c1ccc(F)cc1F)c1nc(=O)[nH]cc1F (stereo not drawn) | 1910 µM (≈ 1020 µg/mL) | 950 µM (≈ 508 µg/mL) | 1910 µM (≈ 1020 µg/mL) | 950 µM (≈ 508 µg/mL) | 950 µM (≈ 508 µg/mL) |  |  |  |  |  |  |  | 
19 | CCCCCCCCCCCCCCCCN(CC(O)(Cn1cncn1)c1ccc(F)cc1F)c1nc(=O)[nH]cc1F (stereo not drawn) | 1730 µM (≈ 1020 µg/mL) | 860 µM (≈ 508 µg/mL) | 1770 µM (≈ 1050 µg/mL) | 860 µM (≈ 508 µg/mL) | 860 µM (≈ 508 µg/mL) |  |  |  |  |  |  |  | 
20 | OC(Cn1cncn1)(Cn1cncn1)c1ccc(F)cc1F [FLUCONAZOLE] | 3 µM (≈ 0.919 µg/mL) | 200 µM (≈ 61.3 µg/mL) | 1650 µM (≈ 505 µg/mL) | 830 µM (≈ 254 µg/mL) | 6 µM (≈ 1.84 µg/mL) |  |  |  |  |  |  |  | 
21 | Nc1nc(=O)[nH]cc1F [FLUCYTOSINE] | 30 µM (≈ 3.87 µg/mL) | 490 µM (≈ 63.3 µg/mL) | 1980 µM (≈ 256 µg/mL) | 1980 µM (≈ 256 µg/mL) | 990 µM (≈ 128 µg/mL) |  |  |  |  |  |  |  | 
22 | O=c1nc(N(Cc2ccccc2F)CC(O)(Cn2cncn2)c2ccc(F)cc2F)c(F)c[nH]1 (stereo not drawn) | 530 µM (≈ 251 µg/mL) | 260 µM (≈ 123 µg/mL) | 530 µM (≈ 251 µg/mL) | 530 µM (≈ 251 µg/mL) | 530 µM (≈ 251 µg/mL) |  |  |  |  |  |  |  | 
